Test results published in the NIST ThermoML archive (doi:10.1016/j.jct.2008.01.009).
Numbers after ± are expanded uncertainties.

Test: molar heat capacity at saturation pressure

C1=Cc2ccccc2CC1 [1,2-dihydronaphthalene]
Conditions	molar heat capacity [J/K/mol]
5.476 K, Crystal 3, Vacuum adiabatic calorimetry	0.37 ± 0.02
6.388 K, Crystal 3, Vacuum adiabatic calorimetry	0.64 ± 0.02
7.291 K, Crystal 3, Vacuum adiabatic calorimetry	0.989 ± 0.02
8.25 K, Crystal 3, Vacuum adiabatic calorimetry	1.48 ± 0.02
9.249 K, Crystal 3, Vacuum adiabatic calorimetry	2.12 ± 0.03
10.3 K, Crystal 3, Vacuum adiabatic calorimetry	2.94 ± 0.03
11.47 K, Crystal 3, Vacuum adiabatic calorimetry	3.91 ± 0.04
12.77 K, Crystal 3, Vacuum adiabatic calorimetry	5.18 ± 0.05
14.21 K, Crystal 3, Vacuum adiabatic calorimetry	6.67 ± 0.06
15.81 K, Crystal 3, Vacuum adiabatic calorimetry	8.431 ± 0.07
17.59 K, Crystal 3, Vacuum adiabatic calorimetry	10.49 ± 0.07
19.57 K, Crystal 3, Vacuum adiabatic calorimetry	12.77 ± 0.083
21.76 K, Crystal 3, Vacuum adiabatic calorimetry	15.28 ± 0.091
24.19 K, Crystal 3, Vacuum adiabatic calorimetry	18 ± 0.1
26.87 K, Crystal 3, Vacuum adiabatic calorimetry	20.93 ± 0.1
29.83 K, Crystal 3, Vacuum adiabatic calorimetry	23.95 ± 0.091
33.12 K, Crystal 3, Vacuum adiabatic calorimetry	27.11 ± 0.1
36.82 K, Crystal 3, Vacuum adiabatic calorimetry	30.48 ± 0.1
40.93 K, Crystal 3, Vacuum adiabatic calorimetry	33.95 ± 0.11
45.51 K, Crystal 3, Vacuum adiabatic calorimetry	37.56 ± 0.12
50.62 K, Crystal 3, Vacuum adiabatic calorimetry	41.31 ± 0.12
55.37 K, Crystal 3, Vacuum adiabatic calorimetry	44.29 ± 0.13
56.32 K, Crystal 3, Vacuum adiabatic calorimetry	44.86 ± 0.13
60.82 K, Crystal 3, Vacuum adiabatic calorimetry	47.66 ± 0.13
66.99 K, Crystal 3, Vacuum adiabatic calorimetry	51.14 ± 0.14
73.79 K, Crystal 3, Vacuum adiabatic calorimetry	54.73 ± 0.15
81.31 K, Crystal 3, Vacuum adiabatic calorimetry	58.53 ± 0.16
89.62 K, Crystal 3, Vacuum adiabatic calorimetry	62.62 ± 0.17
92.5 K, Crystal 3, Vacuum adiabatic calorimetry	64 ± 0.27
98.63 K, Crystal 3, Vacuum adiabatic calorimetry	66.92 ± 0.27
101.72 K, Crystal 3, Vacuum adiabatic calorimetry	68.45 ± 0.27
108.13 K, Crystal 3, Vacuum adiabatic calorimetry	71.57 ± 0.27
111.45 K, Crystal 3, Vacuum adiabatic calorimetry	73.19 ± 0.27
116.48 K, Crystal 3, Vacuum adiabatic calorimetry	75.72 ± 0.27
121.2 K, Crystal 3, Vacuum adiabatic calorimetry	78.05 ± 0.27
122.5 K, Crystal 3, Vacuum adiabatic calorimetry	78.89 ± 0.28
127.59 K, Crystal 3, Vacuum adiabatic calorimetry	81.65 ± 0.28
129.07 K, Crystal 3, Vacuum adiabatic calorimetry	82.45 ± 0.28
132.84 K, Crystal 3, Vacuum adiabatic calorimetry	84.88 ± 0.28
138.14 K, Crystal 3, Vacuum adiabatic calorimetry	89.05 ± 0.29
143.36 K, Crystal 3, Vacuum adiabatic calorimetry	92.96 ± 0.29
148.64 K, Crystal 2	97.43 ± 0.6
153.85 K, Crystal 2	100.66 ± 0.6
159.03 K, Crystal 2	103.99 ± 0.61
164.19 K, Crystal 2	106.64 ± 0.61
169.6 K, Crystal 2	109.63 ± 0.61
171.24 K, Crystal 2	110.54 ± 0.62
175.29 K, Crystal 2	112.56 ± 0.62
178.78 K, Crystal 2	114.67 ± 0.63
180.37 K, Crystal 2	115.57 ± 0.63
180.88 K, Crystal 2	115.84 ± 0.63
186.07 K, Crystal 2	118.77 ± 0.64
186.76 K, Crystal 2	119.11 ± 0.64
187.6 K, Crystal 2	120.08 ± 0.64
192.71 K, Crystal 2	124.28 ± 0.65
192.99 K, Crystal 2	123.59 ± 0.65
197.84 K, Crystal 1, Small (less than 1 g) adiabatic calorimetry	128.42 ± 0.71
199.44 K, Crystal 1, Small (less than 1 g) adiabatic calorimetry	129.23 ± 0.71
202.96 K, Crystal 1, Small (less than 1 g) adiabatic calorimetry	130.85 ± 0.72
206.23 K, Crystal 1, Small (less than 1 g) adiabatic calorimetry	132.6 ± 0.73
208.77 K, Crystal 1, Small (less than 1 g) adiabatic calorimetry	134.08 ± 0.74
213.6 K, Crystal 1, Small (less than 1 g) adiabatic calorimetry	137.01 ± 0.75
215.96 K, Crystal 1, Small (less than 1 g) adiabatic calorimetry	138.43 ± 0.76
219.37 K, Crystal 1, Small (less than 1 g) adiabatic calorimetry	140.75 ± 0.77
230.97 K, Crystal 1, Small (less than 1 g) adiabatic calorimetry	148.65 ± 0.8
238.26 K, Crystal 1, Small (less than 1 g) adiabatic calorimetry	153.96 ± 0.81
243.92 K, Crystal 1, Small (less than 1 g) adiabatic calorimetry	158.36 ± 0.83
252.96 K, Crystal 1, Small (less than 1 g) adiabatic calorimetry	166.39 ± 0.86
255.1 K, Crystal 1, Small (less than 1 g) adiabatic calorimetry	168.26 ± 0.87

Liquid, Small (less than 1 g) adiabatic calorimetry
Conditions	molar heat capacity [J/K/mol]
271.21 K	199.33 ± 1
272.18 K	199.68 ± 1
272.24 K	199.7 ± 1
280.33 K	202.71 ± 1
288.36 K	205.77 ± 1
291.65 K	207.11 ± 1
303.09 K	211.59 ± 1
318.19 K	217.77 ± 1.1
333.27 K	224.04 ± 1.1
348.76 K	230.58 ± 1.1
364.66 K	237.34 ± 1.1
380.18 K	243.96 ± 1.2
395.44 K	250.46 ± 1.2
